Reference: US10023534B2 (BRISTOL-MYERS SQUIBB COMPANY, priority 2014, dated 2018)
Read-outs that look alike come from different tables or passages of the source.

Experiments:
[1] = target: human recombinant Btk (Homo sapiens (Human), UniProt Q06187); assay: Human Recombinant Btk Enzyme Assay; type: biochemical
Protocol: Human Recombinant Btk Enzyme Assay
To V-bottom 384-well plates were added test compounds, human recombinant Btk (1 nM, Invitrogen Corporation), fluoresceinated peptide (1.5 μM), ATP (20 μM), and assay buffer (20 mM HEPES pH 7.4, 10 mM MgCl2, 0.015% Brij 35 surfactant and 4 mM DTT in 1.6% DMSO), with a final volume of 30 μL. After incubating at room temperature for 60 min, the reaction was terminated by adding 45 μL of 35 mM EDTA to each sample. The reaction mixture was analyzed on the Caliper LABCHIP® 3000 (Caliper, Hopkinton, Mass.) by electrophoretic separation of the fluorescent substrate and phosphorylated product. […] Compounds were dissolved at 10 mM in DMSO and evaluated at eleven concentrations.

[2] = tested on: Ramos RA1 B cells; assay: Ramos FLIPR Assay (intracellular calcium flux, anti-human IgM stimulated); type: cell-based; settings: for IC50: Ramos
Protocol: Ramos FLIPR Assay […] Dye-loaded cells were pelleted (Beckmann GS-CKR, 1200 rpm, room temperature, 5 min) and resuspended at room temperature in RPMI minus phenol red with 50 mM HEPES and 10% FBS to a density of 1×10^6 cells/mL. 150 μL aliquots (150,000 cells/well) were plated into 96 well poly-D-lysine coated assay plates (BD 35 4640) and briefly centrifuged (Beckmann GS-CKR 800 rpm, 5 min, without brake). Next, 50 μL compound dilutions in 0.4% DMSO/RPMI minus phenol red+50 mM HEPES+10% FBS were added to the wells and the plate was incubated at room temperature in the dark for 1 hour. The assay plate was briefly centrifuged as above prior to measuring calcium levels. Using the […] (Molecular Devices), cells were stimulated by adding goat anti-human IgM (Invitrogen AHI0601) to 2.5 μg/mL. Changes in intracellular calcium concentrations were measured for 180 seconds and percent inhibition was determined relative to peak calcium levels seen in the presence of stimulation only. The Ramos assay measures the ability of a compound to move through the cell membrane into the cell interior. A lower IC50 value indicates a greater ability to move into the cell interior.

[3] = Table 3, ATP 20 μM, 60 min room temperature, read-out: Btk IC50 value
[4] = Table 3, calcium flux, goat anti-human IgM 2.5 μg/mL, read-out: Ramos IC50 value
[5] = Comparative Example (stereoisomer) IC50 / Example IC50
[6] = Table 4, Comparative Example, read-out: Comparative Example Btk IC50
[7] = Homo sapiens, Table 4, Comparative Example, read-out: Comparative Example Ramos IC50

Sequence of human recombinant Btk (Q06187 whole entry): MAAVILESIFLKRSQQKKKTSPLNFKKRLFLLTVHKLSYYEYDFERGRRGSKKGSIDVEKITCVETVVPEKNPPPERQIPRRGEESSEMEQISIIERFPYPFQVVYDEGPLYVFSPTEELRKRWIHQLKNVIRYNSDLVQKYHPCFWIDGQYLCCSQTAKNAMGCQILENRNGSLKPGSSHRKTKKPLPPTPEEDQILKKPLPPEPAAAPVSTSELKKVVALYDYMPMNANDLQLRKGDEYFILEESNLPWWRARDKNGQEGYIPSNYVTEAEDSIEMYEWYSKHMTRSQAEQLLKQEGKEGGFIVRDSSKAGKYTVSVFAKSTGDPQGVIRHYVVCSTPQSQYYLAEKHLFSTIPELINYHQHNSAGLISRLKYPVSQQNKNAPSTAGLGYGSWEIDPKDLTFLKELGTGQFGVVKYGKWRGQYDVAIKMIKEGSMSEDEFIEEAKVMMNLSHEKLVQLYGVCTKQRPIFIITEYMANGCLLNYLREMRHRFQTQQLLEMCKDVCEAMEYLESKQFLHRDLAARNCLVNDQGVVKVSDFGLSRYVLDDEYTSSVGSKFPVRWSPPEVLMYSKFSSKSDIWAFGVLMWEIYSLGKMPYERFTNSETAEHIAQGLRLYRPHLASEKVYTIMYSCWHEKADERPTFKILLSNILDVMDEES

IC50 [1, 3] [nM]	IC50 [2, 4] [nM]	Structure (SMILES)	further results
0.6	–	C=CC(=O)N1CCc2c(cccc2-c2c(Cl)cc(C(N)=O)c3[nH]c4c(c23)CCCC4)C1 (racemic) [Example 32, 5-(2-acryloyl-1,2,3,4-tetrahydroisoquinolin-5-yl)-6-chloro-2,3,4,9-tetrahydro-1H-carbazole-8-carboxamide]	IC50 ([2]; Homo sapiens, Table 3, calcium flux, goat anti-human IgM 2.5 μg/mL, read-out: Ramos IC50 value): 46 nM
0.3	13	C=CC(=O)N1CCc2c(cccc2-c2c(F)cc(C(N)=O)c3[nH]c4ccncc4c23)C1 (racemic) [Example 31, 9-(2-acryloyl-1,2,3,4-tetrahydroisoquinolin-5-yl)-8-fluoro-5H-pyrido[4,3-b]indole-6-carboxamide]	–

The remaining lines, values behind:

Structure (SMILES)	IC50 [1, 3] [nM]	IC50 [2, 4] [nM]	further results
C=CC(=O)N1CCOc2c(-c3c(F)cc(C(N)=O)c4[nH]c5ccccc5c34)cccc21 (racemic) [Example 3, (RS)-4-(4-acryloyl-3,4-dihydro-2H-benzo[b][1,4]oxazin-8-yl)-3-fluoro-9H-carbazole-1-carboxamide]	0.075	4.6	–
C=CC(=O)N1CCc2c(cccc2-c2c(F)cc(C(N)=O)c3[nH]c4c(c23)CC(F)(F)CC4)C1 (single isomer, unassigned) [Example 6, 5-(2-Acryloyl-1,2,3,4-tetrahydroisoquinolin-5-yl)-3,3,6-trifluoro-2,3,4,9-tetrahydro-1H-carbazole-8-carboxamide]	0.12	23	Potency Difference Btk: ratio of IC50 value for the Comparative Example to that for the corresponding Example [1, 5]: 38; IC50 ([1]; Table 4, read-out: Example Btk IC50): 0.12 nM; Potency Difference Ramos: ratio of IC50 value for the Comparative Example to that for the corresponding Example [2, 5]: >13; IC50 ([2]; Homo sapiens, Table 4, read-out: Example Ramos IC50): 23 nM
C=CC(=O)N1CCc2c(cccc2-c2c(F)cc(C(N)=O)c3[nH]c4cc(C(=O)N(C)C)ccc4c23)C1 (racemic) [Example 28, 4-(2-acryloyl-1,2,3,4-tetrahydroisoquinolin-5-yl)-3-fluoro-N7,N7-dimethyl-9H-carbazole-1,7-dicarboxamide]	0.17	17	–
C=CC(=O)N1CCc2c(cccc2-c2c(F)cc(C(N)=O)c3[nH]c4c(c23)CC(F)(F)CC4)C1 (single isomer, unassigned) [Comparative Example 16, 5-(2-Acryloyl-1,2,3,4-tetrahydroisoquinolin-5-yl)-3,3,6-trifluoro-2,3,4,9-tetrahydro-1H-carbazole-8-carboxamide]	–	–	IC50 [1, 6]: 4.5 nM; IC50 [2, 7]: > 300 nM
C=CC(=O)N1CCSc2c(-c3c(F)cc(C(N)=O)c4[nH]c5ccccc5c34)cccc21 (single isomer, unassigned) [Comparative Example 23, 4-(4-Acryloyl-3,4-dihydro-2H-benzo[b][1,4]thiazin-8-yl)-3-fluoro-9H-carbazole-1-carboxamide]	–	–	IC50 [1, 6]: 4.4 nM; IC50 [2, 7]: 150 nM
C=CC(=O)N1CCc2c(cccc2-c2c(F)cc(C(N)=O)c3[nH]c4c(c23)CC(F)(F)CC4)C1 (racemic) [Example 1, (RS)-5-(2-Acryloyl-1,2,3,4-tetrahydroisoquinolin-5-yl)-3,3,6-trifluoro-2,3,4,9-tetrahydro-1H-carbazole-8-carboxamide]	0.18	25	–
